Test results as given in ChEMBL document CHEMBL1765075, “Discovery and structure-activity relationship of 3-aminopyrid-2-ones as potent and selective interleukin-2 inducible T-cell kinase (Itk) inhibitors” (J Med Chem, 2011).

Tests used:
[1] = biological target: Death-associated protein kinase 3 (Homo sapiens, UniProt O43293); experiment: Inhibition of ZIPK
[2] = biological target: Cyclin-dependent kinase 1 (Homo sapiens, UniProt P06493); experiment: Inhibition of CDK1
[3] = biological target: Serine/threonine-protein kinase 3 (Homo sapiens, UniProt Q13188); experiment: Inhibition of MST2
[4] = biological target: T1, Receptor-type tyrosine-protein kinase FLT3 (Homo sapiens, UniProt P36888); experiment: Inhibition of FLT3
T1 sequence (P36888 whole entry): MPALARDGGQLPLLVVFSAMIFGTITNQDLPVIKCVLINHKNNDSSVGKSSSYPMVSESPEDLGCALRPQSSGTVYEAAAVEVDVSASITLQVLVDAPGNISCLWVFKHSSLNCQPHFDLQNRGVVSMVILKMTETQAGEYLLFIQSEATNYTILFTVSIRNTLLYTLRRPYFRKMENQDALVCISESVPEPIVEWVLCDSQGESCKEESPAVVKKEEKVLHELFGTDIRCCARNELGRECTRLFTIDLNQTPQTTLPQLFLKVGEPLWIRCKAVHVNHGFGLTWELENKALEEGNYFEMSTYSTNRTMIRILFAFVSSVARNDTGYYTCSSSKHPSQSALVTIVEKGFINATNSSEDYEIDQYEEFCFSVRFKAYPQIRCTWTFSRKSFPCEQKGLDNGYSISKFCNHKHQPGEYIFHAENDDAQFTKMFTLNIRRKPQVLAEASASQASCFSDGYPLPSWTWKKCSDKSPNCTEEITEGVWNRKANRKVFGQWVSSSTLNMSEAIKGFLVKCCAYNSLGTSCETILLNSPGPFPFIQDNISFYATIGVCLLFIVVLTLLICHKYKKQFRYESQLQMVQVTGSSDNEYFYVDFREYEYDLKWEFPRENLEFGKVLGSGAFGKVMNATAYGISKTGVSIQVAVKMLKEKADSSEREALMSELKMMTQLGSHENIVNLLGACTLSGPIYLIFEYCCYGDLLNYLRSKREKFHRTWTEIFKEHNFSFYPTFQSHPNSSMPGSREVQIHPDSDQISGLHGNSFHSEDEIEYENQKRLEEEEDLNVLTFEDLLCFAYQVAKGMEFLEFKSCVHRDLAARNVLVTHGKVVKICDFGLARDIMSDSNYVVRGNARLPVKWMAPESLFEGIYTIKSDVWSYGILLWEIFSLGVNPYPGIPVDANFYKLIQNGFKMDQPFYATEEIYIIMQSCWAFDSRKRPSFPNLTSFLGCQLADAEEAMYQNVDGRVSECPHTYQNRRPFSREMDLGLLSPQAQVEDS

[5] = biological target: RAF proto-oncogene serine/threonine-protein kinase (Homo sapiens, UniProt P04049); experiment: Inhibition of C-RAF
[6] = biological target: Tyrosine-protein kinase JAK2 (Homo sapiens, UniProt O60674); experiment: Inhibition of JAK2
[7] = biological target: Interleukin-1 receptor-associated kinase 4 (Homo sapiens, UniProt Q9NWZ3); experiment: Inhibition of IRAK4
[8] = biological target: Tyrosine-protein kinase Fer (Homo sapiens, UniProt P16591); experiment: Inhibition of FER
[9] = biological target: Serine/threonine-protein kinase PLK3 (Homo sapiens, UniProt Q9H4B4); experiment: Inhibition of PLK3
[10] = biological target: Indoleamine 2,3-dioxygenase 1 (Homo sapiens, UniProt P14902); experiment: Inhibition of IDO1
[11] = biological target: Serine/threonine-protein kinase TBK1 (Homo sapiens, UniProt Q9UHD2); experiment: Inhibition of TBK1
[12] = biological target: Insulin-like growth factor 1 receptor (Homo sapiens, UniProt P08069); experiment: Inhibition of IGF1R
[13] = biological target: T1, Receptor-type tyrosine-protein kinase FLT3; experiment: Inhibition of Flt3 after 20 mins by radiometric phosphate incorporation assay
[14] = biological target: Mitogen-activated protein kinase 14 (Homo sapiens, UniProt Q16539); experiment: Inhibition of P38alpha
[15] = biological target: Rho-associated protein kinase 2 (Homo sapiens, UniProt O75116); experiment: Inhibition of ROCK2
[16] = Solubility of the compound in phosphate buffer at pH 7.4 by high throughput shake flask assay; assay type: physicochemical
[17] = biological target: Protein kinase C theta type (Homo sapiens, UniProt Q04759); experiment: Inhibition of PKCtheta
[18] = biological target: Serine/threonine-protein kinase pim-1 (Homo sapiens, UniProt P11309); experiment: Inhibition of PIM1
[19] = biological target: MAP kinase-activated protein kinase 5 (Homo sapiens, UniProt Q8IW41); experiment: Inhibition of PRAK
[20] = biological target: Serine/threonine-protein kinase Nek1 (Homo sapiens, UniProt Q96PY6); experiment: Inhibition of NEK1
[21] = biological target: Tyrosine-protein kinase Fyn (Homo sapiens, UniProt P06241); experiment: Inhibition of FYN
[22] = biological target: T2, Mast/stem cell growth factor receptor Kit (Homo sapiens, UniProt P10721); experiment: Inhibition of KIT
[23] = biological target: Ceramide kinase (Homo sapiens, UniProt Q8TCT0); experiment: Inhibition of CERK
[24] = biological target: RAC-alpha serine/threonine-protein kinase (Homo sapiens, UniProt P31749); experiment: Inhibition of AKT1
[25] = biological target: Focal adhesion kinase 1 (Homo sapiens, UniProt Q05397); experiment: Inhibition of FAK
[26] = Inhibition of PDK
[27] = biological target: Tyrosine-protein kinase JAK3 (Homo sapiens, UniProt P52333); experiment: Inhibition of JAK3
[28] = biological target: Macrophage-stimulating protein receptor (Homo sapiens, UniProt Q04912); experiment: Inhibition of RON
[29] = biological target: T2, Mast/stem cell growth factor receptor Kit; experiment: Inhibition of c-Kit after 45 mins by radiometric phosphate incorporation assay
[30] = biological target: Mitogen-activated protein kinase 11 (Homo sapiens, UniProt Q15759); experiment: Inhibition of P38beta
[31] = biological target: Mitogen-activated protein kinase kinase kinase 8 (Homo sapiens, UniProt P41279); experiment: Inhibition of COT
[32] = biological target: Platelet-derived growth factor receptor alpha (Homo sapiens, UniProt P16234); experiment: Inhibition of PDGFRalpha

T2 sequence (P10721 whole entry): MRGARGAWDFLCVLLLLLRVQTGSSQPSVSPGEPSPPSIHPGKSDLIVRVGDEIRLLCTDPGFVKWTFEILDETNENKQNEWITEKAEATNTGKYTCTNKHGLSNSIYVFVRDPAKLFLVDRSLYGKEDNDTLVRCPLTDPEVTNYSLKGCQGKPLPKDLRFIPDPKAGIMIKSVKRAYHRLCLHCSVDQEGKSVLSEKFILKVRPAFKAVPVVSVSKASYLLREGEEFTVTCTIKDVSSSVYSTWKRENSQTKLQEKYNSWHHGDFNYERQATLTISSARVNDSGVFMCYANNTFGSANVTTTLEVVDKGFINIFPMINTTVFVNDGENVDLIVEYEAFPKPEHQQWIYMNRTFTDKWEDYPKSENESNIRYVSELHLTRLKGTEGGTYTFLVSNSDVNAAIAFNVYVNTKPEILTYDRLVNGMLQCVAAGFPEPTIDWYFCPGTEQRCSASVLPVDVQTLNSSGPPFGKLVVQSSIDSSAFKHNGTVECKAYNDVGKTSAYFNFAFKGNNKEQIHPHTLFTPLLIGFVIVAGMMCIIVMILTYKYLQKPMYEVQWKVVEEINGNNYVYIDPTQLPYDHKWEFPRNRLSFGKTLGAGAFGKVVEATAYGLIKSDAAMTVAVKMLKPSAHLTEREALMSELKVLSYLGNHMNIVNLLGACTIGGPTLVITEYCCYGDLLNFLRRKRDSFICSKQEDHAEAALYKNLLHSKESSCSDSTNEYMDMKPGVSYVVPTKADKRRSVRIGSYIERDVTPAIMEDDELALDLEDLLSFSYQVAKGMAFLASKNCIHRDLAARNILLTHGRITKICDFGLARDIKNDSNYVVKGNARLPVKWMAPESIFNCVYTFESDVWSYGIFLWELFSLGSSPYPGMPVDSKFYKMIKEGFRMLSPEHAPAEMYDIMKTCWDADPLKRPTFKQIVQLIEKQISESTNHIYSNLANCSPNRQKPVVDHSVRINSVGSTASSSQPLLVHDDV
Sequence of Protein kinase C theta type (Q04759 whole entry): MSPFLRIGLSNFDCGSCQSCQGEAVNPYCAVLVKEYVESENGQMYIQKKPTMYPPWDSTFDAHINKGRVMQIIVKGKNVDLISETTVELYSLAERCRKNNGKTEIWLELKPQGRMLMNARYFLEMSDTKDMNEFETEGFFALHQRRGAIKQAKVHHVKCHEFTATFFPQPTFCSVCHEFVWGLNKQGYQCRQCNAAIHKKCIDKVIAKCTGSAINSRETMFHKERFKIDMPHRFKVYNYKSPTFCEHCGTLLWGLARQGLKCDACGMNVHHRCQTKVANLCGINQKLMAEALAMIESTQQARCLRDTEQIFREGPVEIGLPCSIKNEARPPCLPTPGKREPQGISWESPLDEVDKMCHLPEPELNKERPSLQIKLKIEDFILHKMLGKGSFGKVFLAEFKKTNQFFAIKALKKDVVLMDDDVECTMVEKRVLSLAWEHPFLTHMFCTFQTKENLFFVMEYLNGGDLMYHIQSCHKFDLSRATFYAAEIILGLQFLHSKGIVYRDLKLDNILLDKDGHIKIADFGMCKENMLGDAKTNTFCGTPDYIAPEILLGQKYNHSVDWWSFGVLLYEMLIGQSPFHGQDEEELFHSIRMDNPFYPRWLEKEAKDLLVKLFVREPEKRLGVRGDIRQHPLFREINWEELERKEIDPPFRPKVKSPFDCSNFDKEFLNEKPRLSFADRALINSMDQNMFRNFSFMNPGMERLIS
Sequence of Interleukin-1 receptor-associated kinase 4 (Q9NWZ3 whole entry): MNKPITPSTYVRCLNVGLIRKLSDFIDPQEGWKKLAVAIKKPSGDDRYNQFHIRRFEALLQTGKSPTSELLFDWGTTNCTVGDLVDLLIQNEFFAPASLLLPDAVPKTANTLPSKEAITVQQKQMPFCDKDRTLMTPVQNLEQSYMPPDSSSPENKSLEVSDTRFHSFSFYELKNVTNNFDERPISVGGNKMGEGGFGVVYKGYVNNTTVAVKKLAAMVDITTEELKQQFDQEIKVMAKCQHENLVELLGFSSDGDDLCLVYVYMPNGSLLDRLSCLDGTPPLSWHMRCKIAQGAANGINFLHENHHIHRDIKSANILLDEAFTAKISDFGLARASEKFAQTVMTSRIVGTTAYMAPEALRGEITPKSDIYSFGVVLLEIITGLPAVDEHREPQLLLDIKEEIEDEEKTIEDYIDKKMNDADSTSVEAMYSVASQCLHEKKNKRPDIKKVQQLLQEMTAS
Sequence of Tyrosine-protein kinase JAK3 (P52333 whole entry): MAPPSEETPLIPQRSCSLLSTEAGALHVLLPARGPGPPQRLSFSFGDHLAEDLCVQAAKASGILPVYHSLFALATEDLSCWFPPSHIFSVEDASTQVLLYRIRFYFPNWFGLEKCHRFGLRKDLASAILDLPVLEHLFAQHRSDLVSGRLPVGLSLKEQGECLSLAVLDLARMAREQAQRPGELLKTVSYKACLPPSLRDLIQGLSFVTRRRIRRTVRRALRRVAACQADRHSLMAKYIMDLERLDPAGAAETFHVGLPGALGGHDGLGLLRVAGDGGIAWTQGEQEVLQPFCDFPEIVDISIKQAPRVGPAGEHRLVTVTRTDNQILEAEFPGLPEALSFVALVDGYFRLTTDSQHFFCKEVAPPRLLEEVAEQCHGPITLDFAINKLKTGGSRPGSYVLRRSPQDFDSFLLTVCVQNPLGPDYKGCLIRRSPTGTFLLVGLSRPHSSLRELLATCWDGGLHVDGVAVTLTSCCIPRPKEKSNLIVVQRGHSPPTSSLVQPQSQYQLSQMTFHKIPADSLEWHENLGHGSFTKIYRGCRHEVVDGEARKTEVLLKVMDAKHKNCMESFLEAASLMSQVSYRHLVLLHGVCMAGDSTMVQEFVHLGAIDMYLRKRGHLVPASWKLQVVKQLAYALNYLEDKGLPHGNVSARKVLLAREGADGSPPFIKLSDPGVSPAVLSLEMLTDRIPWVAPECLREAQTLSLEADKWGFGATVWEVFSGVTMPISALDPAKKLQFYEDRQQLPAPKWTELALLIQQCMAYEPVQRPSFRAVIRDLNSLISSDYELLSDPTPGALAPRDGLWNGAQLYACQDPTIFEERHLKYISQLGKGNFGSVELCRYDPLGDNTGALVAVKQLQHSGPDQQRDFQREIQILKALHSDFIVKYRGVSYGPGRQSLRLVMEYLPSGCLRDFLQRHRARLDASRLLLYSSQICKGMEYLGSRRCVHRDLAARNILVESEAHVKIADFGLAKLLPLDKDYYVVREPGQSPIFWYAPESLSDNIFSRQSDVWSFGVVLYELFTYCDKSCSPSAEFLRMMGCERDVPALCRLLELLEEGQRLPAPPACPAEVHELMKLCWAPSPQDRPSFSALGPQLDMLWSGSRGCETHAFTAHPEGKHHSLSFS
Sequence of Serine/threonine-protein kinase 3 (Q13188 whole entry): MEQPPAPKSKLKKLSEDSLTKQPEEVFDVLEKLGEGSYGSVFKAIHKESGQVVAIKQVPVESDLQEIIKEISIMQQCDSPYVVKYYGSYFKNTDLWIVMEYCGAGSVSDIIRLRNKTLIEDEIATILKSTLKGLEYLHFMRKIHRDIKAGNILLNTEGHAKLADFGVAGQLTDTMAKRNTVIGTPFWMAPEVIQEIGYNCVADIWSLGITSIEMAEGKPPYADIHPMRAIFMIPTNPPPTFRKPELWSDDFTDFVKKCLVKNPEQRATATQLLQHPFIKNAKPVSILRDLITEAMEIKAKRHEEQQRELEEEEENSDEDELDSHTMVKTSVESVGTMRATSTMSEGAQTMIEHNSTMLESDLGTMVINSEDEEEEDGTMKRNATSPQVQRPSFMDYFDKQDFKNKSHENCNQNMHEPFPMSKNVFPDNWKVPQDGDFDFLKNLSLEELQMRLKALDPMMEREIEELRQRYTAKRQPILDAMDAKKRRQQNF
Sequence of Ceramide kinase (Q8TCT0 whole entry): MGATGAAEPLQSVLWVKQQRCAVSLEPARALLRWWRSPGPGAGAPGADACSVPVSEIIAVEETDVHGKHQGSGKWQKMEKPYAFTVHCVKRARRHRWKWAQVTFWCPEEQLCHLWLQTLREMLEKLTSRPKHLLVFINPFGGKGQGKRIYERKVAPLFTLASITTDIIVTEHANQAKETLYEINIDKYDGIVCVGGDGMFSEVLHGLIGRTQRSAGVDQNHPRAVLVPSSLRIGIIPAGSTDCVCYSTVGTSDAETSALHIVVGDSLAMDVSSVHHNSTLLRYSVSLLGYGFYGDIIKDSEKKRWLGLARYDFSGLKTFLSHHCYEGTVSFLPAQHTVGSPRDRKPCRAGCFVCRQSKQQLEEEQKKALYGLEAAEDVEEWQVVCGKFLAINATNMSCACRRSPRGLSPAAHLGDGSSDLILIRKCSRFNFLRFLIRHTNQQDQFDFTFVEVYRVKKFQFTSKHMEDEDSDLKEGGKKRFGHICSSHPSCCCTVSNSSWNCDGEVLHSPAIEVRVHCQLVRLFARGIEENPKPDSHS
Sequence of Tyrosine-protein kinase Fyn (P06241 whole entry): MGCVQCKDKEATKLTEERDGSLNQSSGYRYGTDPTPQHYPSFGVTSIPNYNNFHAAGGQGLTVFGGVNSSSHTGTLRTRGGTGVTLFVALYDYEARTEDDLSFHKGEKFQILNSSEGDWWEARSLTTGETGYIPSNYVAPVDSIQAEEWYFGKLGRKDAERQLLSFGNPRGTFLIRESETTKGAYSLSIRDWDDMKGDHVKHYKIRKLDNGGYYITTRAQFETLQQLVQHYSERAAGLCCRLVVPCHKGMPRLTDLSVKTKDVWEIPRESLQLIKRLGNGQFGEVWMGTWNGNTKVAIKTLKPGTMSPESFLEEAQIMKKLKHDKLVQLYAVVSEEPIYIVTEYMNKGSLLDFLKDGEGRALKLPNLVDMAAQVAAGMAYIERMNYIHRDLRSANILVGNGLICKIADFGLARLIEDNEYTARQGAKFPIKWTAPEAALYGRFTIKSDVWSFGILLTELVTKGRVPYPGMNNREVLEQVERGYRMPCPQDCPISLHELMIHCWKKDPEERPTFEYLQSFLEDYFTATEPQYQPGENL

CNc1cncc(-c2c[nH]c(=O)c(NC(=O)c3ccc(N4CCC[C@H]4CN4CCCC4)cc3)c2)n1
0.15 mg/mL: solubility thermodynamic [16]
0.35 µM: Ki [27]
0.02 µM: Ki [4] | Ki [13]
0.2 µM: Ki [22] | Ki [29]
> 2 µM: Ki [5] | Ki [17]
0.37 µM: Ki [6]
> 1 µM: Ki [1] | Ki [2] | Ki [3] | Ki [7] | Ki [8] | Ki [9] | Ki [10] | Ki [11] | Ki [12] | Ki [14] | Ki [15] | Ki [18] | Ki [19] | Ki [20] | Ki [21] | Ki [23] | Ki [24] | Ki [25] | Ki [26] | Ki [28] | Ki [30] | Ki [31] | Ki [32]
